Measured values reported in patent publication US20230416233A1, “(AZA)QUINOLINE 4-AMINES DERIVATIVES AS P2X3 INHIBITORS” (CHIESI FARMACEUTICI S.P.A., priority 2020, published 2023).
Read-outs that look alike come from different tables or passages of the source.

How the values were obtained:
h P2X3 = target: T1, h P2X3 (Homo sapiens, UniProt P56373); assay: In vitro electrophysiology assay for P2X3 (Sophion Qube automated whole-cell patch clamp); format: cell-based; details: for h P2X3 (pIC50 range of activity): Table 3
T1 sequence (P56373 1-397): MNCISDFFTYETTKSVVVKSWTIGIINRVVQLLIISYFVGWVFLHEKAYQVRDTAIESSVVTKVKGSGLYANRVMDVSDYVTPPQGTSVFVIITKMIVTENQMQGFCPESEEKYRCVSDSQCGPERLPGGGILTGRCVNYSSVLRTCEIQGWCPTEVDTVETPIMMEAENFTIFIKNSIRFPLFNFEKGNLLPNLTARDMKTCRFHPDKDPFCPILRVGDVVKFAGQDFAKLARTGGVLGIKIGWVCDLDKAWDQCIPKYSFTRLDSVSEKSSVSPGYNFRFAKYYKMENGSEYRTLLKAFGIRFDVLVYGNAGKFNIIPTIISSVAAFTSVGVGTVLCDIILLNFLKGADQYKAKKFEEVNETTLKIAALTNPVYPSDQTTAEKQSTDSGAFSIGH
Method: In Vitro Electrophysiology Assay for P2X3
(§1) Cells expressing P2X3 receptors were grown according to standard practice and maintained at 37° C. in a 5% humidified CO2 atmosphere. The cells were seeded into T175 flask 2 days prior to the day of the assay and dissociated from the flasks using TrypLE when grown to confluence of 80-90%. The dissociated cells were resuspended in serum free media at a cell density of 3×10^6 cells/ml and loaded onto the Sophion Qube automated patch-clamp system. The extracellular assay buffer contained 145 mM NaCl, 4 mM KCl, 2 mM CaCl2, 1 mM MgCl2, 10 mM HEPES, and 10 mM glucose at pH 7.4. The intracellular assay solution contained 140 mM CsF, 10 mM NaCl, 10 mM EGTA, 10 mM HEPES at pH 7.2. Agonist stock solutions were prepared in H2O and diluted in bath solution prior to use. All antagonists were prepared as 10 mM stock solutions in DMSO and diluted in bath solution prior to use. All experiments were performed under the whole-cell patch clamp configuration at room temperature with 384 individual cells being voltage clamped at −60 mV simultaneously on the Sophion Qube instrument. Two baseline responses were established with the application of α,β-MeATP (800 nM), with the subsequent agonist applications being washed out using extracellular assay buffer containing 0.5 U/ml apyrase. Following the second agonist application, antagonist was incubated in the absence of α,β-MeATP for 10 minutes. After antagonist preincubation, 800 nM α,β-MeATP and antagonist were co-administered to determine the inhibitory effect of the antagonist. One concentration of an antagonist was assessed against a single cell, with different concentrations of the antagonist applied to other cells on the 384 recording substrate. The control P2X3 current amplitude was taken from the peak current amplitude from the second agonist response prior to preincubation with antagonist. The peak P2X3 current amplitude in the presence of antagonist was used to calculate the inhibitory effect at each concentration of the antagonist according to the following equation:
Percentage inhibition of P2X3=(P2X3 control peak amplitude−P2X3 antagonist peak amplitude)/P2X3 control peak amplitude)*100
Concentration-response curves were constructed from ten different concentrations with each concentration of antagonist tested on at least two individual cells. The concentration of the antagonist to inhibit P2X3 current by 50% (IC50) was determined by fitting the data with the following equation:
Y=a+[(b−a)/(1+10^((log c−x)d)]
Where ‘a’ is minimum response, ‘b’ is maximum response, ‘c’ is IC50 and ‘d’ is Hill slope.
The results for individual compounds are provided below in Table 2 and are expressed as range of activity.

h P2X2/3 = target: T2, h P2X2/3 (Homo sapiens, UniProt P56373+Q9UBL9); assay: In vitro electrophysiology assay for P2X2/3 (same protocol as the P2X3 assay, 10 μM ATP as agonist); format: cell-based; details: Table 3; agonist 10 μM ATP, mean current amplitude seven seconds after agonist; read-out: h P2X2/3 (pIC50 range of activity) (converted)
T2 construct: host or cells: cells not described; same protocol as the P2X3 assay
T2 sequence (P56373 1-397): T1 sequence (P56373 1-397)
T2 sequence (Q9UBL9 1-471): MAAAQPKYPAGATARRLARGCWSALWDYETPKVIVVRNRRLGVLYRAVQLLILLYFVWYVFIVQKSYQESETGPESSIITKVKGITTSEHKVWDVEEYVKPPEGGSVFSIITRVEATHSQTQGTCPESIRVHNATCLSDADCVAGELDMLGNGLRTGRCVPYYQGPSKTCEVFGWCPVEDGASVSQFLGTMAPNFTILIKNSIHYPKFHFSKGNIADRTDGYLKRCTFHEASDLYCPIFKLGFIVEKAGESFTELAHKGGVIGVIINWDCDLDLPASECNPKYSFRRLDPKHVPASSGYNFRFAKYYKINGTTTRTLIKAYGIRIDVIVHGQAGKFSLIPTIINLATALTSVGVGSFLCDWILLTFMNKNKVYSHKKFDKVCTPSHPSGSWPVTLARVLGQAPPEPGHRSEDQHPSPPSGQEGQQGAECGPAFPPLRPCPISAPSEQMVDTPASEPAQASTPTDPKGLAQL
Method: as §1, with “The peak P2X3 current amplitude in the presence of antagonist was used to calculate the inhibitory effect at each concentration of the antagonist according to the following equation:” left out
The same assay protocol was used for the P2X2/3 assay as the P2X3 assay with two modifications: 1) 10 μM ATP was used as the agonist; and 2) the mean current amplitude was measured seven seconds after the application of agonist.

[1] = Table 2, agonist 800 nM α,β-MeATP, 10 min antagonist preincubation, peak current, read-out: h P2X3 (pIC50 range of activity) (converted)
[2] = agonist 800 nM α,β-MeATP, peak current

Row | IC50 (h P2X3; [1]) [nM] | IC50 (h P2X2/3) [nM] | IC50 (h P2X3; in vitro assay as described for P2X3, read-out: activity on receptor P2X3 expressed as pIC50 (converted)) [nM] | SMILES | h P2X3 (pIC50 range of activity) (h P2X3; [2])
1 | < 316 | – | – | Cc1ccc(-c2ccc3nccc(NCc4ccc(C)nn4)c3c2)nc1 [Example 10, N-((6-methylpyridazin-3-yl)methyl)-6-(5-methylpyridin-2-yl)quinolin-4-amine] | –
2 | < 316 | 3160 to 31600 | – | COc1cc(-c2ncc(C)cn2)cc2c(N[C@H](C)c3ccc(C)nn3)cnnc12 [Example 8, (R)-8-methoxy-N-(1-(6-methylpyridazin-3-yl)ethyl)-6-(5-methylpyrimidin-2-yl)cinnolin-4-amine] | +++ (+++: pIC50 h P2X3 or h P2X2/3 > 6.5)
3 | < 316 | – | – | Cc1ccc(CNc2ccnc3ccc(-c4ccc(F)cc4)cc23)nn1 [Example 11, 6-(4-Fluorophenyl)-N-((6-methylpyridazin-3-yl)methyl)quinolin-4-amine] | –
4 | < 316 | – | – | COc1cc(-c2ccc(F)cc2)cc2c(N[C@H](C)c3ccc(C)nn3)cnnc12 [Example 6, (R)-6-(4-fluorophenyl)-8-methoxy-N-(1-(6-methylpyridazin-3-yl)ethyl)cinnolin-4-amine] | –
5 | < 316 | – | – | Cc1cnc(-c2ccc3nncc(N[C@H](C)c4cnc(C(F)(F)F)nc4)c3c2)s1 [Example 3, 6-(5-Methylthiazol-2-yl)-N-((1R)-1-(2-(trifluoromethyl)pyrimidin-5-yl)ethyl)cinnolin-4-amine] | –
6 | < 316 | 316 to 3160 | – | Cc1ccc(-c2ccc3nncc(N[C@H](C)c4cnc(C(F)(F)F)nc4)c3c2)nc1 [Example 4, 6-(5-Methylpyridin-2-yl)-N-((1R)-1-(2-(trifluoromethyl)pyrimidin-5-yl)ethyl)cinnolin-4-amine] | +++ (+++: pIC50 h P2X3 or h P2X2/3 > 6.5)
7 | < 316 | – | – | Cc1ccc(-c2ccc3nncc(NCc4ccc(C)nn4)c3c2)nc1 [Example 5, N-((6-methylpyridazin-3-yl)methyl)-6-(5-methylpyridin-2-yl)cinnolin-4-amine] | –
8 | < 316 | 316 to 3160 | – | C[C@@H](Nc1cnnc2ccc(-c3ccc(F)cc3)cc12)c1cnc(C(F)(F)F)nc1 [Example 2, 6-(4-Fluorophenyl)-N-((1R)-1-(2-(trifluoromethyl)pyrimidin-5-yl)ethyl)cinnolin-4-amine] | +++ (+++: pIC50 h P2X3 or h P2X2/3 > 6.5)

The remaining lines, values behind:

Row | SMILES | IC50 (h P2X3; [1]) [nM] | IC50 (h P2X2/3) [nM] | IC50 (h P2X3; in vitro assay as described for P2X3, read-out: activity on receptor P2X3 expressed as pIC50 (converted)) [nM] | h P2X3 (pIC50 range of activity) (h P2X3; [2])
9 | COc1cc(-c2ccc(F)cc2)cc2c(N[C@H](C)c3cnc(C(F)(F)F)nc3)cnnc12 [Example 7, (R)-6-(4-fluorophenyl)-8-methoxy-N-(1-(2-(trifluoromethyl)pyrimidin-5-yl)ethyl)cinnolin-4-amine] | < 316 | – | – | –
10 | Cc1ccc(-c2ccc3nccc(N[C@H](C)c4cnc(C(F)(F)F)nc4)c3c2)nc1 [Example 9, (R)-6-(5-methylpyridin-2-yl)-N-(1-(2-(trifluoromethyl)pyrimidin-5-yl)ethyl) quinolin-4-amine] | < 316 | – | – | –
11 | Cc1ccc(CNc2nccc3ccc(-c4ccc(F)cc4)cc23)nn1 [comparative Example A, reference compound] | – | – | > 3160 | –
12 | C[C@@H](Nc1ccnc2ccc(-c3ccc(F)cc3)cc12)c1cnc(C(F)(F)F)nc1 [Example 12, (R)-6-(4-fluorophenyl)-N-(1-(2-(trifluoromethyl)pyrimidin-5-yl)ethyl)quinolin-4-amine] | 316 to 3160 | – | – | –
13 | Cc1ccc([C@@H](C)Nc2cnnc3ccc(-c4ccc(F)cc4)cc23)nn1 [Example 13, 6-(4-Fluorophenyl)-N-[(1R)-1-(6-methylpyridazin-3-yl)ethyl]cinnolin-4-amine] | < 316 | – | – | –
14 | Cc1ccc(CNc2cnnc3ccc(-c4ccc(F)cc4)cc23)nn1 [Example 1, 6-(4-Fluorophenyl)-N-((6-methylpyridazin-3-yl)methyl)cinnolin-4-amine] | < 316 | – | – | –
